Data as given in US6943191B1, “Disubstituted lavendustin A analogs and pharmaceutical composition comprising the analogs” (The United States of America as represented by the …, priority 1998, dated 2005).
Read-outs that look alike come from different tables or passages of the source.

Columns and labels:
[1] = target: T1, p210^bcr-abl (Homo sapiens, UniProt P00519); test: Inhibition of in vitro auto-phosphorylation of p210^bcr-abl, immune-complex kinase assay; type: biochemical; conditions: immune complex kinase assay, 3 experiments, read-out: Enzyme Assays IC50 (μM) p210bcl-abl in vitro phosphorylation
T1 construct: immune complexes containing ^32P-labeled p210^bcr-abl were collected on protein Sepharose beads; BCR (N-terminal part of the breakpoint cluster region protein, natural fusion partner); endogenous in cells; host or cells: K562 cells (lysate, immunoprecipitated on Protein A-Sepharose); the other entry of the earlier key: BCR (P11274, Breakpoint cluster region protein)
T1 sequence (P00519 with tags, fused parts or gaps): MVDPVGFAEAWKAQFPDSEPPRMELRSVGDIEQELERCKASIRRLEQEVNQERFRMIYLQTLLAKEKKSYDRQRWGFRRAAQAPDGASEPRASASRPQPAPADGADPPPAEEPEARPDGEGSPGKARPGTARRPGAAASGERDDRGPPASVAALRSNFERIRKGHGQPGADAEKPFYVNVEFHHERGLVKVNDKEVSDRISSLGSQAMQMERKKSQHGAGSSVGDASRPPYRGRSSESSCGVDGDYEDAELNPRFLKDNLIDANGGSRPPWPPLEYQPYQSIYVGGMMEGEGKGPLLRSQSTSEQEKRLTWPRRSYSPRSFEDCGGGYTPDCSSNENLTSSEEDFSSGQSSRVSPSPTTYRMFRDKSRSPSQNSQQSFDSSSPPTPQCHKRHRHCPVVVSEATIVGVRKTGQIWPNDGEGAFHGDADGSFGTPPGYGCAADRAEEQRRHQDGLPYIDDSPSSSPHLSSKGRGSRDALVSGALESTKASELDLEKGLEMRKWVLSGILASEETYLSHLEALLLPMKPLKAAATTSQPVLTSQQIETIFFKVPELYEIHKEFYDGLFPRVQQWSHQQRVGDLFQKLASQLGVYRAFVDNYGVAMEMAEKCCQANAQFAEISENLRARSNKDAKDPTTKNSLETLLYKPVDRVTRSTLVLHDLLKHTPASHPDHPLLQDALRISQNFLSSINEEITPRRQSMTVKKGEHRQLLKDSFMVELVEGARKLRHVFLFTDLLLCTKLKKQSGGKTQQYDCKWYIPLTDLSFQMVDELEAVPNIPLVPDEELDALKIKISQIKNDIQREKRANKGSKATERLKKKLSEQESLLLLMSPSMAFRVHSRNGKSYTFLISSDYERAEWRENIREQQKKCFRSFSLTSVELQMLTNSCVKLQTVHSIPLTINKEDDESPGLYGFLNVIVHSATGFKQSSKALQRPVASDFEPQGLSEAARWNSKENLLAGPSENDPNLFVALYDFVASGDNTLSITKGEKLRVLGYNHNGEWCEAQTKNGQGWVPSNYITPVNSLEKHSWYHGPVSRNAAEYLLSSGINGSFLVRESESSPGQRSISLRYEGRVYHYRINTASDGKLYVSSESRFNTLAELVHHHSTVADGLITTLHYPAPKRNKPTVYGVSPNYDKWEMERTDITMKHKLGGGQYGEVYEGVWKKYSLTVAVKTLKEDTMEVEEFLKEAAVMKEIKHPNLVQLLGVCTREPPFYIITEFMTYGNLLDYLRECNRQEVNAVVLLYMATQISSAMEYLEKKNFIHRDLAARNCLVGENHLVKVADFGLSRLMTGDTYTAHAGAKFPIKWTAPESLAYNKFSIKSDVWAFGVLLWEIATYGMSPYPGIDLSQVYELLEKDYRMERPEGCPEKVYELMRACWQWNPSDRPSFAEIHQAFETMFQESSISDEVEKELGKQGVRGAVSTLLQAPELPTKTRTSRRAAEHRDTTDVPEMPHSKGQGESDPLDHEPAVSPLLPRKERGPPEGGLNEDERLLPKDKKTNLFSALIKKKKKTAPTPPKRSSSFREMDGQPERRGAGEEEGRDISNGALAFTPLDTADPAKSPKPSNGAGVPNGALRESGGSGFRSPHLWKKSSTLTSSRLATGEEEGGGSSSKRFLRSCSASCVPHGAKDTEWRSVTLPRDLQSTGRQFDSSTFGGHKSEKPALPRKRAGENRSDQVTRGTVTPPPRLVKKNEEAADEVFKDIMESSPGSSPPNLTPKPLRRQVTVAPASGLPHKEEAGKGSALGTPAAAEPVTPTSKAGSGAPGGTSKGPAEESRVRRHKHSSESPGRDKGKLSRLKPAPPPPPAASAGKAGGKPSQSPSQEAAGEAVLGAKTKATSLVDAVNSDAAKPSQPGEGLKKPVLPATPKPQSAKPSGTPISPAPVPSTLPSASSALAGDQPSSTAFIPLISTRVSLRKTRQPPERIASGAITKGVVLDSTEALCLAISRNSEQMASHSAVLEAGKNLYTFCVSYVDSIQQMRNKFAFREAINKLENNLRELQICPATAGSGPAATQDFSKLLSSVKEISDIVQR
Procedure: Inhibition of in vitro auto-phosphorylation of p210^bcr-abl in immune-complex kinase assays were conducted as follows. K562 cell line cells were washed twice in […]. The washed cells were lysed in PLC lysis buffer 150 mM HEPES (pH 7.5), 150 mM NaCl, 10% (v/v) glycerol, 1% (v/v) Triton X-100, 1.5 mM MgCl2, 1 mM EGTA. 10 μg/ml leupeptin, 10 μg/ml aprotinin, 1 mM sodium orthovanadate. 10 mM sodium pyrophosphate, 100 mM sodium fluoride and 1 mM phenylmethyl sulfonyl fluoride| Cell lysates were centrifuged at 100,000 g for 15 minutes and the supernatant collected. Protein concentrations of the clarified supernatants were determined by the Bradford Protein Assay, and the same quantity of protein was immunoprecipitated from control (vehicle-treated) and drug-treated cells. Cell lysates were incubated and gently rocked at 4° C. for 4 hours overnight with antibodies. Immune complexes were collected by incubation with Protein A-Sepharose beads (Pharmacia, Piscataway N.J.) and immune complexes (beads) were washed three times with HNTG buffer [20 mM HEPES (pH 7.5), 10% glycerol, 0.1% Triton X-100, 150 mM NaCl and 1 mM sodium orthovanadate] to remove unbound material. Bound proteins were boiled for 5 minutes in 2×SDS sample buffer (63 mM Tris-HCl, ph 6.8; 10% glycerol; 2% SDS; 0.0025% bromophenol blue: and […] 2 mercaptoethanol) prior to SDS-PAGE. Proteins were resolved on 4-20% gradient mini gels from Novex Experimental Technology (San Diego, Calif.).
After SDS-PAGE, proteins were electrophoretically transferred onto Immobilon polyvinylidene difluoride (PVDF) membranes (Millipore, Bedford, Mass.) at 250 mA for 4 hours at 4° C. using 2× Tris glycine transfer buffer (50 mM Tris, glycine), 20% methanol and 0.1% SDS. Residual binding sites on the membrane were blocked by incubation in TTS (20 mM Tris pH 7.4, 0.9% NaCl and 0.05% Tween 20) containing 3% BSA overnight at 4° C. or for 4 hours at room temperature. Blots were incubated for 1-1.5 hours with TTS containing 0.3% BSA with 1 μg/ml of mouse anti-P-Tyr, 2 μg/ml of mouse anti-Grb2 or 1 μg/ml of rabbit anti-She antibody. Blots were washed three times for 6 minutes each with TTS containing 0.3% BSA and probed with a 1:1000 dilution of rabbit anti-mouse antibody or directly with [^125I]Protein A (Amersham, Arlington Heights, Ill.) in blocking solutions. Proteins were visualized by autoradiography (exposed for 1-2 days at −70° C.).
The p210^bcr-abl, protein immunoprecipitates were washed twice with HTNG buffer Immunoprecipitates were washed once with 50 mM Tris (pH 7.0) and distributed to each reaction in 20 μl of 20 mM PIPES [piperazine-N,N′-bis(ethanesulfonic acid)] (pH 7.0)−20 mM MnCl2. Then, 10 μl of compounds made according to the present invention at desired concentrations from working stock solution prepared in 20 mM PIPEs (pH 7.0)−20 mM MnCl2 were added to each reaction tube. Reactions were initiated with the addition of 10 μl of [γ-^33P]ATP (10 μCi per sample, 3000 Ci/mmol; Amersham), incubated for 20 minutes at 30° C., stopped by addition of 10 μl of 5×SDS sample buffer, heated at 100° C. for 5 minutes, and analyzed on 4-20% SDS-PAGE and by autoradiography.
To assess the effect of drugs added in vitro on the state of p210^bcr-abl in the immune complexes, K562 cells were labeled with ^32P, lysed in PLC buffer and immune complexes containing ^32P-labeled p210^bcr-abl were collected on protein Sepharose beads and beads were washed four times with HNTG buffer. Immune complexes were divided into several tubes in 30 μl of PLC buffer in the presence of compounds made as described herein.

[2] = system: U251; test: Hollow fiber assay in mice, U251; type: in vivo, human; conditions: QD X 4, Day 4; for % T/C U251 IP: IP fibers; for % T/C U251 SC: SC fibers
Procedure: (§1) Compounds satisfying Formulas 1 and 2 also have been tested for in vivo activity in the hollow fiber assay. See Example 12 below for the procedure used for the in vivo tests. Each compound tested was tested against a minimum of 12 human cancer cell lines. Data is reported as % T/C (i.e., the […]) for each of the 2 compound doses against each of the cell lines with separate values calculated for the intraperitoneal and subcutaneous samples, with a target value for % T/C being about 50 or less.
(§2) Compounds were selected for further in vivo testing in standard subcutaneous xenograft models on the basis of several hollow fiber assay criteria. These criteria include: (1) a % T/C of 50 or less in 10 of the 48 possible test combinations (12 cell lines×2 sites×2 compound doses); (2) activity at a distance (intrapentoneal drug/subcutaneous culture) in a minimum of 4 of the 24 possible combinations; and/or (3) a net cell kill of 1 or more cell lines in either implant site. To simplify evaluation, a point system has been adopted which allows rapid assessment of a compound's activity. A value of 2 is assigned for each compound dose which results in a 50% or greater reduction in viable cell mass. The intraperitoneal and subcutaneous samples were scored separately so that criteria (1) and (2) could be evaluated. Compounds with a combined IP+SC score≧20, an SC score≧8, or a net cell kill of one or more cell lines were referred for xenograft testing. These criteria have been statistically validated by comparing the activity outcomes of greater than 80 randomly selected compounds in the hollow fiber assay and in the xenograft testing.
(§3) This example describes the method used for in vivo testing of mice. Human cancer cells were cultivated in polyvinylidene fluoride (PVDF) hollow fibers. A sample of each cancer cell line was implanted intraperitoneally and subcutaneously in mice. Each mouse received a total of 6 fibers, 3 intraperitoneally and 3 subcutaneously, representing 3 distinct cancer cell lines. Three mice were treated with compounds made according to the present invention at each of two test doses intraperitoneally using a QD×4 treatment schedule. […] Anticancer effects were assessed by determining viable cell mass for each of the coil line using a formazan dye (MTT) conversion assay. From this, the % TIC was calculated using the average optical density of the compound-treated samples divided by the average optical density of the vehicle controls. In addition, the net increase in cell mass was determined for each sample as samples of fiber cultures were assessed for viable cell mass on the day of implantation into mice. This allowed cytostatic and cytocidal capacities of these compounds to be assessed.

[3] = system: OVCAR-5; test: Hollow fiber assay in mice, OVCAR-5; type: in vivo, human; conditions: QD X 4, Day 4; for % T/C OVCAR-5 IP: IP fibers; for % T/C OVCAR-5 SC: SC fibers
Procedure: as §1, §2, §3

## COC(=O)c1ccc(CCc2cc(O)c(Br)cc2O)cc1
[1]; Table 10, mean ± S.E.
  IC50: 4.42 ± 0.24 µM

## COC(=O)c1ccc(CCC2=CC(=O)C(Br)=CC2=O)cc1
[1]; Table 10, mean ± S.E.
  IC50: 3.52 ± 0.16 µM

## CC(C)OC(=O)c1ccc(CCC2=CC(=O)C(Br)=CC2=O)cc1
[1]; Table 10, mean ± S.E.
  IC50: 4.19 ± 0.07 µM

## CC(C)(C)OC(=O)c1ccc(NCc2cc(O)ccc2O)cc1 [COOC(CH3)3 / H / H, 4′-t-butylbenzoate-1′-N-2,5-dihydroxybenzylamine]
[1]; Table 8, mean+S.E.
  IC50: 7.72 µM

## O=C(OCc1ccccc1)c1ccc(NCc2cc(O)ccc2O)cc1 [COOCH2Ph / H / H]
[1]; Table 8, mean+S.E.
  IC50: 36.6 µM

## COC(=O)c1ccc(C=Cc2cc(O)ccc2O)cc1 [COOCH3 / 2,5-dihydoxyphenyl / CH═CH / H]
[1]; Table 10, mean ± S.E.
  IC50: 19.9 ± 9.94 µM

## COC(=O)c1ccc(/C=C/C2=CC(=O)C=CC2=O)cc1 [COOCH3 / 2,5-quinoyl / CH═CH / H]
[1]; Table 10, mean ± S.E.
  IC50: 5.47 ± 0.22 µM

## CC(C)OC(=O)c1ccc(CCC2=CC(=O)C=CC2=O)cc1 [COOCH(CH3)2 / 2,5-quinoyl / CH2—CH2 / H]
[1]; Table 10, mean ± S.E.
  IC50: 5.26 ± 2.09 µM

## CC(C)OC(=O)c1ccc(NCc2cc(O)ccc2O)cc1Cl [COOCH(CH3)2 / Cl / H, 5′-chloro-4′-isopropylbenzoate-1′-N-2,5-dihydroxybenzylamine]
[1]; Table 8, mean+S.E.
  IC50: 1.22 µM

## CC(C)OC(=O)c1ccc(NCc2cc(O)ccc2O)cc1 [COOCH(CH3)2 / H / H]
[1]; Table 8, mean+S.E.
  IC50: 4.45 µM

## CC(C)C(OC(=O)c1ccc(NCC2=CC(=O)C=CC2=O)cc1)C(C)C [COOCH[CH(CH3)2]2 / H / 2,5-quinoyl]
[1]; Table 9, mean ± S.E.
  IC50: 34 ± 9.02 µM

## CC(C)C(OC(=O)c1ccc(NCc2cc(O)ccc2O)cc1)C(C)C [COOCH[CH(CH3)2]2 / H / H]
[1]; Table 8, mean+S.E.
  IC50: 11.1 µM

## O=C(OC12CC3CC(CC(C3)C1)C2)c1ccc(NCc2cc(O)ccc2O)cc1 [Compound 6, 4′-adamantylbenzoate-1′-N-2,5-dihydroxybenzylamine]
[2]; 33.50 mg/kg/dose IP
  % T/C U251 IP: 100%
  % T/C U251 SC: >100%
[2]; 50.00 mg/kg/dose IP
  % T/C U251 IP: >100%
  % T/C U251 SC: >100%
[1]; Table 8, mean+S.E.
  IC50: 13.6 µM
[3]; 33.50 mg/kg/dose IP
  % T/C OVCAR-5 IP: >100%
  % T/C OVCAR-5 SC: 87%
[3]; 50.00 mg/kg/dose IP
  % T/C OVCAR-5 IP: 46%
  % T/C OVCAR-5 SC: 75%

## O=C(OCC12CC3CC(CC(C3)C1)C2)c1ccc(NCc2cc(O)ccc2O)cc1 [Compound 7, 4′-4′-adamantylmethylbenzoate-1′-N-2,5-dihydroxybenzylamine]
[1]; Table 8, mean+S.E.
  IC50: 12.6 µM
